Assays:
HepG2 cells = assay: In vitro anti-proliferative SRB assay, HepG2; assay type: cell-based, human; details: for IC50 / inhibition at 10 µM: Homo sapiens; for IC50: HepG2, increasing concentrations up to 30 μM, mean ± SD of at least three independent experiments; for SI (CC50 HMLE/IC50 HepG2) / SI (CC50 L02/IC50 HepG2): selectivity index; for SI (CC50 HMLE/IC50 HepG2): HMLE vs HepG2; for SI (CC50 L02/IC50 HepG2): L02 vs HepG2; for inhibition at 10 µM: HepG2 cells, SRB assay, mean ± SD of three independent experiments
Method: (§1) HepG2 and MCF7 cells were grown in the Eagle’s minimum essential medium with Earle’s balanced salts (MEM-EBSS) medium, HeLa, A549 and L02 cells were grown in Dulbecco’s Modified Eagle Media (DMEM), SW1990 cells were grown in RPMI-1640 medium, and HMLE cell were grown in DMEM/F-12 medium. […]
(§2) Cells were seeded into 96-well plates (4000 cells/well) and incubated at 37 °C in a humidified 5% CO2 atmosphere. After 24 h, the cells were treated with different concentrations of the compounds for 48 h in triplicate to generate dose-response curves. Cell viability was evaluated using the sulforhodamine B (SRB) assay as previous described.

HeLa cells = assay: In vitro anti-proliferative SRB assay, HeLa; assay type: cell-based, human; details: for IC50: Homo sapiens, HeLa, increasing concentrations up to 30 μM, mean ± SD of at least three independent experiments; for SI (CC50 HMLE/IC50 Hela) / SI (CC50 L02/IC50 Hela): selectivity index; for SI (CC50 HMLE/IC50 Hela): HMLE vs HeLa; for SI (CC50 L02/IC50 Hela): L02 vs HeLa
Method: as §1, §2

MCF-7 cells = assay: In vitro anti-proliferative SRB assay, MCF-7; assay type: cell-based, human; details: for IC50: Homo sapiens, MCF7, increasing concentrations up to 30 μM, mean ± SD of at least three independent experiments; for SI (CC50 HMLE/IC50 MCF7) / SI (CC50 L02/IC50 MCF7): selectivity index; for SI (CC50 HMLE/IC50 MCF7): HMLE vs MCF7; for SI (CC50 L02/IC50 MCF7): L02 vs MCF7
Method: as §1, §2

A549 cells = assay: In vitro anti-proliferative SRB assay, A549; assay type: cell-based, human; details: for IC50: Homo sapiens, A549, increasing concentrations up to 30 μM, mean ± SD of at least three independent experiments; for SI (CC50 HMLE/IC50 A549) / SI (CC50 L02/IC50 A549): selectivity index; for SI (CC50 HMLE/IC50 A549): HMLE vs A549; for SI (CC50 L02/IC50 A549): L02 vs A549
Method: as §1, §2

SW1990 cells = assay: In vitro anti-proliferative SRB assay, SW1990; assay type: cell-based, human; details: for IC50: Homo sapiens, SW1990, increasing concentrations up to 30 μM, mean ± SD of at least three independent experiments; for SI (CC50 HMLE/IC50 SW1990) / SI (CC50 L02/IC50 SW1990): selectivity index; for SI (CC50 HMLE/IC50 SW1990): HMLE vs SW1990; for SI (CC50 L02/IC50 SW1990): L02 vs SW1990
Method: as §1, §2

[1] = Cytotoxicity (SRB) against non-tumoral HMLE cells; assay type: cell-based, human; details: human, HMLE cells (non-tumoral human mammary epithelial cells); increasing concentrations up to 100 μM; mean ± SD of at least three independent experiments; read-out: Normal Human Cell Lines, CC50, HMLE
Method: (§3) All compounds were also evaluated for their cytotoxic activity against two non-tumoral human cell lines named human mammary epithelial cell (HMLE) and L02 (a human liver cell line) in Table 2 and SI values between the CC50 in non-tumoral cell lines and IC50 in tumoral cells calculated.
as §1
as §2, with “described. […] Etoposide was used as the positive control.” for “described.”

[2] = Cytotoxicity (SRB) against non-tumoral L02 cells; assay type: cell-based, human; details: human, L02 cells (non-tumoral human liver cell line); increasing concentrations up to 100 μM; mean ± SD of at least three independent experiments; read-out: Normal Human Cell Lines, CC50, L02
Method: as §3, §1
as §2, with “described. […] Etoposide was used as the positive control.” for “described.”

COc1cccc(OC)c1/C=C/C(=O)c1cccc(OCc2ccccc2)c1 [b12, (E)-1-(3-(Benzyloxy)phenyl)-3-(2,6-dimethoxyphenyl)prop-2-en-1-one]
IC50 (HepG2 cells): 23.6 ± 0.84 µM | SI (CC50 HMLE/IC50 HepG2) (HepG2 cells): 1.3 | SI (CC50 L02/IC50 HepG2) (HepG2 cells): >4.2 | IC50 (HeLa cells): 25.6 ± 1.16 µM | SI (CC50 HMLE/IC50 Hela) (HeLa cells): 1.2 | SI (CC50 L02/IC50 Hela) (HeLa cells): >3.9 | IC50 (MCF-7 cells): 29.03 ± 0.09 µM | SI (CC50 HMLE/IC50 MCF7) (MCF-7 cells): 1.1 | SI (CC50 L02/IC50 MCF7) (MCF-7 cells): >3.4 | IC50 (A549 cells): 13.25 ± 0.02 µM | SI (CC50 HMLE/IC50 A549) (A549 cells): 2.4 | IC50 (SW1990 cells): 22.3 ± 0.07 µM | SI (CC50 HMLE/IC50 SW1990) (SW1990 cells): 1.4 | CC50 at 48 h [1]: 31.4 ± 1.12 µM | CC50 at 48 h [2]: > 100 µM | melting point: 108.8 to 110.2 °C

COc1ccc(C(=O)/C=C/c2c(OC)cccc2OC)c(O)c1 [b28, (E)-1-(2-Hydroxy-4-methoxyphenyl)-3-(2,6-dimethoxyphenyl)prop-2-en-1-one]
IC50 (HepG2 cells): 19.5 ± 0.79 µM | SI (CC50 HMLE/IC50 HepG2) (HepG2 cells): 0.8 | SI (CC50 L02/IC50 HepG2) (HepG2 cells): >5.1 | IC50 (HeLa cells): 17 ± 0.65 µM | SI (CC50 HMLE/IC50 Hela) (HeLa cells): 1.0 | SI (CC50 L02/IC50 Hela) (HeLa cells): >5.9 | IC50 (MCF-7 cells): 28.4 ± 1.25 µM | SI (CC50 HMLE/IC50 MCF7) (MCF-7 cells): 0.6 | SI (CC50 L02/IC50 MCF7) (MCF-7 cells): >3.5 | IC50 (A549 cells): 17.4 ± 0.97 µM | SI (CC50 HMLE/IC50 A549) (A549 cells): 0.9 | SI (CC50 L02/IC50 A549) (A549 cells): >5.8 | IC50 (SW1990 cells): 28.3 ± 0.26 µM | SI (CC50 HMLE/IC50 SW1990) (SW1990 cells): 0.6 | SI (CC50 L02/IC50 SW1990) (SW1990 cells): >3.5 | CC50 at 48 h [1]: 16.2 ± 2.48 µM | CC50 at 48 h [2]: > 100 µM | melting point: 143.5 to 144.7 °C

COc1cccc(OC)c1/C=C/C(=O)c1ccc2c(c1)OCO2 [b20, (E)-1-(Benzo[d][1,3]dioxol-5-yl)-3-(2,6-dimethoxyphenyl)prop-2-en-1-one]
IC50 (HepG2 cells): 17.5 ± 0.54 µM | SI (CC50 HMLE/IC50 HepG2) (HepG2 cells): 0.8 | SI (CC50 L02/IC50 HepG2) (HepG2 cells): 3.5 | IC50 (HeLa cells): 16.2 ± 0.95 µM | SI (CC50 HMLE/IC50 Hela) (HeLa cells): 0.9 | SI (CC50 L02/IC50 Hela) (HeLa cells): 3.8 | IC50 (MCF-7 cells): 22.5 ± 0.37 µM | SI (CC50 HMLE/IC50 MCF7) (MCF-7 cells): 0.6 | SI (CC50 L02/IC50 MCF7) (MCF-7 cells): 2.7 | IC50 (A549 cells): 19.5 ± 0.9 µM | SI (CC50 HMLE/IC50 A549) (A549 cells): 0.7 | SI (CC50 L02/IC50 A549) (A549 cells): 3.1 | IC50 (SW1990 cells): 25.9 ± 0.65 µM | SI (CC50 HMLE/IC50 SW1990) (SW1990 cells): 0.5 | SI (CC50 L02/IC50 SW1990) (SW1990 cells): 2.4 | CC50 at 48 h [1]: 14.2 ± 1.06 µM | CC50 at 48 h [2]: 60.9 ± 5.61 µM | melting point: 138.6 to 140.4 °C

CCOc1cc(OC)ccc1C(=O)/C=C/c1c(OC)cccc1OC [b17, (E)-1-(2-Ethoxy-4-methoxyphenyl)-3-(2,6-dimethoxyphenyl)prop-2-en-1-one]
IC50 (HepG2 cells): 12 ± 0.23 µM | SI (CC50 HMLE/IC50 HepG2) (HepG2 cells): 0.8 | SI (CC50 L02/IC50 HepG2) (HepG2 cells): 0.9 | IC50 (HeLa cells): 8.54 ± 0.14 µM | SI (CC50 HMLE/IC50 Hela) (HeLa cells): 1.1 | SI (CC50 L02/IC50 Hela) (HeLa cells): 1.3 | IC50 (MCF-7 cells): 7.74 ± 0.1 µM | SI (CC50 HMLE/IC50 MCF7) (MCF-7 cells): 1.2 | SI (CC50 L02/IC50 MCF7) (MCF-7 cells): 1.4 | IC50 (A549 cells): 9.33 ± 0.3 µM | SI (CC50 HMLE/IC50 A549) (A549 cells): 1.0 | SI (CC50 L02/IC50 A549) (A549 cells): 1.2 | SI (CC50 HMLE/IC50 SW1990) (SW1990 cells): 0.8 | SI (CC50 L02/IC50 SW1990) (SW1990 cells): 1.0 | CC50 at 48 h [1]: 9.03 ± 0.8 µM | CC50 at 48 h [2]: 10.9 ± 0.42 µM | melting point: 98.7 to 100.2 °C

COc1ccc(C(=O)/C=C/c2cc(OC)c(OC)cc2OC)cc1 [a19, (E)-1-(4-Methoxyphenyl)-3-(2,4,5-trimethoxyphenyl)prop-2-en-1-one]
inhibition at 10 µM (HepG2 cells): 38.1 ± 10.3% | melting point: 122.1 to 123.7 °C

COc1ccc(C(=O)/C=C/c2cccc(OC)c2OC)cc1 [a12, (E)-1-(4-Methoxyphenyl)-3-(2,3-dimethoxyphenyl)prop-2-en-1-one]
inhibition at 10 µM (HepG2 cells): 66.3 ± 4.2%

COc1ccc(C(=O)/C=C/c2ccc(OC)c(OC)c2OC)cc1 [a18, (E)-1-(4-Methoxyphenyl)-3-(2,3,4-trimethoxyphenyl)prop-2-en-1-one]
inhibition at 10 µM (HepG2 cells): 31.8 ± 7.3% | melting point: 94.4 to 96.5 °C

COc1ccc(/C=C/C(=O)c2ccc(OC)cc2)cc1 [a10, (E)-1,3-bis(4-Methoxyphenyl)prop-2-en-1-one]
inhibition at 10 µM (HepG2 cells): 27.7 ± 17.7%

COc1ccc(C(=O)/C=C/c2ccc(OC)c(OCc3ccccc3)c2)cc1 [a17, (E)-1-(4-Methoxyphenyl)-3-(3-(benzyloxy)-4-methoxyphenyl)prop-2-en-1-one]
inhibition at 10 µM (HepG2 cells): 44.1 ± 6.2% | melting point: 115 to 118.2 °C

COc1ccc(C(=O)/C=C/c2cc(OC)ccc2OC)cc1 [a13, (E)-1-(4-methoxyphenyl)-3-(2,5-dimethoxyphenyl)prop-2-en-1-one]
inhibition at 10 µM (HepG2 cells): 77 ± 2.2% | melting point: 54.7 to 56.3 °C

COc1ccc(C(=O)/C=C/c2ccc(Br)cc2F)cc1 [a3, (E)-1-(4-Methoxyphenyl)-3-(4-bromo-2-fluorophenyl)prop-2-en-1-one]
inhibition at 10 µM (HepG2 cells): 41.8 ± 5.9% | melting point: 122.2 to 123.6 °C

COc1ccc(C(=O)/C=C/c2ccccc2OC)cc1 [a8, (E)-1-(4-Methoxyphenyl)-3-(2-methoxyphenyl)prop-2-en-1-one]
inhibition at 10 µM (HepG2 cells): 61.4 ± 3.4% | melting point: 43.2 to 45.5 °C
